The assay has as its system HCMV gDNA. The assay can be described thus: Analysis of CM-treated viral gDNA (agarose gel, EcoR1 digestion, 50° C. incubation). Further details: species or system human cytomegalovirus. As to the method: Analysis of CM and viral gDNA: To see any effect of CM on the HCMV gDNA, the gDNA was analyzed by agarose gel electrophoresis, restriction digestion, and thermal incubation at 50° C. The HCMV was grown in ARPE-19 cells and virus particles were purified through sucrose gradient using ultracentrifugation. HCMV gDNA was extracted and concentration was determined by OD at 260/280. Approximately, 10 μg of HCMV gDNA was incubated with 10 μM CM at RT for 1 hour and 10 μg of HCMV gDNA was treated with vehicle control without CM. The treated gDNA was analyzed by the agarose gel electrophoresis to see any effect of CM on the HCMV gDNA. In a separate experiment, the […] treated HCMV gDNA was incubated at 50° C. for 30 minutes to check the alkylation of DNA is thermolabile or not. Untreated HCMV gDNA was also treated similarly. In another, 3 μg of CM treated and untreated HCMV gDNA was digested with EcoR1 overnight at 37° C. and analyzed by 0.6% agarose gel electrophoresis.
To understand the mechanism behind CM mediated attenuation of the virus, CM-treated viral gDNA was analyzed using agarose gel electrophoresis, restriction digestion, and heat-labile fragmentation assays. The AD169 viral gDNA was treated with 1 μM CM for two hours at RT and then separated with a 0.6% agarose gel. Untreated AD169 viral gDNA was used as a control. […] To further understand the effect of CM on the viruses, viral gDNA was isolated and treated with CM for two hours at RT followed by digestion with the restriction enzymes EcoR1. […] However, the CM treated viruses were alkylated efficiently as compared to the control which was observed by the DNA fragmentation during incubation at 50° C. while control untreated viruses have intact DNA (FIG. 3C).

With `COc1cc2cc(C(=O)Nc3cc(N)c4ccccc4c3CCCl)[nH]c2c(OC)c1OC` [CM, centanamycin], the “Viral gDNA bands on 0.6% agarose gel, treated versus untreated” value (AD169 viral gDNA, 1 μM CM, two hours at RT) was “no big differences in the viral gDNA bands, mobility, and gel pattern”. Further, where the note is “CM two hours at RT, then EcoR1”, the “EcoR1 digestion pattern of CM treated viral gDNA” value was “no major missing bands”. The “Thermolabile alkylation: state of CM treated viral DNA on incubation at 50° C.” value (incubation at 50° C.) is “experienced fragmentation at 50 °C”.
